Measured values: patent US9884043B2, “RORgammaT inhibitors” (Merck Sharp & Dohme Corp., priority 2011, dated 2018)

molecular target: T1, 6His(GST)RORgamma-LBD (Homo sapiens, UniProt P51449); experiment: TR-FRET assay (Protocol A), RORgamma-LBD / SRC1_2 co-activator peptide interaction; format: biochemical; details: SRC1_2 peptide 0.1 μM, RORgamma-LBD 10 nM, overnight incubation at 4° C.
T1 construct: the applied RORgamma-LBD contains a 6-His and GST tag; GST (N); made in house; host or cells: baculovirus-infected Sf-21 insect cells
T1 sequence (P51449 269-508 limits assumed): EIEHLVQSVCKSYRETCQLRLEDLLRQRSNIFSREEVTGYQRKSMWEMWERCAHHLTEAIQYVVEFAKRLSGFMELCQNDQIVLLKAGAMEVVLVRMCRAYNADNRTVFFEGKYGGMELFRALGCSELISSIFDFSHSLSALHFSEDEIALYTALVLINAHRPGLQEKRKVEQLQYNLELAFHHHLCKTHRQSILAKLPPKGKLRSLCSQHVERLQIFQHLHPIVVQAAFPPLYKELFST
Excerpt: (§1) Activation of RORgammaT activity can be measured using e.g. biochemical TR-FRET assay. In such an assay, interaction of cofactor-derived peptides with human RORgammaT-Ligand Binding Domain (LBD) can be measured.
(§2) To identify novel antagonists of RORgammaT, an assay was developed which employs the interaction of RORgammaT with its co-activator peptide SRC1_2. […] The assay was run following three slightly different protocols, i.e. Protocol A, Protocol B, and Protocol C, which are described below.
TR-FRET Assay (Protocol A)
The 6His(GST)RORgamma-LBD was expressed and purified from baculovirus infected Sf-21 insect cells (Bac-to-BAC, Invitrogen) and purified using glutathione sepharose chromatography (GE healthcare). Biotin and His function as anchoring points for streptavidin-allophycocyanin (Strep-APC, Perkin Elmer, C130-100) and anti-His-Europium Cryptate (Perkin Elmer, AD0111), respectively. Since energy transfer between the streptavidin and His-coupled labels APC and europium cryptate can only take place when these labels are in close proximity, measurement of energy transfer in a mixture of biotinylated peptide, His-GR-LBD, streptavidin-APC and anti-His-Europium Cryptate will be indicative for RORy-LBD/peptide binding. […] Changes in peptide binding caused by dose-curves of compounds added to the reaction mixture (DMSO concentration 0.1%), can likewise be monitored.

Row | Compound | EC50 [nM] | pEC50
1 | O=C(O)c1ccc(-c2nn(C(=O)c3c(Cl)cccc3Cl)c3ccccc23)cc1 [Example 1, 4-(1-(2,6-dichlorobenzoyl)-1H-indazol-3-yl)benzoic acid] | 10.7 | –
2 | O=C(O)c1ccc(-c2nn(C(=O)c3c(Cl)cccc3Cl)c3ccc(F)cc23)cc1 [Example 2, 4-(1-(2,6-dichlorobenzoyl)-5-fluoro-1H-indazol-3-yl)benzoic acid] | 245 | –
3 | O=C(O)c1ccc(-c2nn(C(=O)c3c(Cl)cccc3Cl)c3c(F)cccc23)cc1 [Example 3, 4-(1-(2,6-dichlorobenzoyl)-7-fluoro-1H-indazol-3-yl)benzoic acid] | 18.6 | –
4 | O=C(O)c1ccc(-c2nn(C(=O)c3c(Cl)cccc3Cl)c3cccc(F)c23)cc1 [Example 4, 4-(1-(2,6-dichlorobenzoyl)-4-fluoro-1H-indazol-3-yl)benzoic acid] | 8.32 | –
5 | O=C(O)c1ccc(-c2nn(C(=O)c3c(Cl)cccc3Cl)c3cc(F)ccc23)cc1 [Example 5, 4-(1-(2,6-dichlorobenzoyl)-6-fluoro-1H-indazol-3-yl)benzoic acid] | 174 | –
6 | O=C(O)c1ccc(-c2nn(C(=O)c3c(Cl)cccc3Cl)c3cccnc23)cc1 [Example 6A, 4-(1-(2,6-dichlorobenzoyl)-1H-pyrazolo[4,3-b]pyridin-3-yl)benzoic acid] | 13.5 | –
7 | O=C(O)c1ccc(-c2nn(C(=O)c3ccccc3C(F)(F)F)c3cccnc23)cc1 [Example 6B, 4-(1-(2-(trifluoromethyl)benzoyl)-1H-pyrazolo[4,3-b]pyridin-3-yl)benzoic acid] | 224 | –
8 | O=C(O)c1ccc(-c2cn(C(=O)c3c(Cl)cccc3Cl)c3cccnc23)cc1 [Example 7, 4-(1-(2,6-dichlorobenzoyl)-1H-pyrrolo[3,2-b]pyridin-3-yl)benzoic acid] | 14.1 | –
9 | O=C(O)c1ccc(-c2nn(C(=O)c3c(Cl)cccc3Cl)c3ccncc23)cc1 [Example 8, 4-(1-(2,6-dichlorobenzoyl)-1H-pyrazolo[4,3-c]pyridin-3-yl)benzoic acid] | 4900 | –
10 | O=S(=O)(c1ccccc1C(F)(F)F)n1nc(-c2ccc(C(O)(C(F)(F)F)C(F)(F)F)cc2)c2ccccc21 [Example 9, 1,1,1,3,3,3-hexafluoro-2-(4-(1-(2-(trifluoromethyl)phenylsulfonyl)-1H-indazol-3-yl)phenyl)propan-2-ol] | 9330 | –
11 | O=C(O)c1ccc(-c2nn(S(=O)(=O)c3ccccc3C(F)(F)F)c3ccccc23)cc1 [Example 12, 4-(1-(2-(trifluoromethyl)phenylsulfonyl)-1H-indazol-3-yl)benzoic acid] | – | 7.17

Next, values leading:

Row | EC50 [nM] | pEC50 | Compound
12 | 339 | – | O=C(O)c1ccc(-c2nn(C(=O)c3c(Cl)cncc3Cl)c3ccccc23)cc1 [Example 11A, 4-(1-(3,5-dichloroisonicotinoyl)-1H-indazol-3-yl)benzoic acid]
13 | 44.7 | – | O=C(O)c1ccc(-c2nn(C(=O)c3ccccc3Br)c3ccccc23)cc1 [Example 11B, 4-(1-(2-bromobenzoyl)-1H-indazol-3-yl)benzoic acid]
14 | 513 | – | COC(=O)c1ccccc1C(=O)n1nc(-c2ccc(C(=O)O)cc2)c2ccccc21 [Example 11C, 4-(1-(2-(methoxycarbonyl)benzoyl)-1H-indazol-3-yl)benzoic acid]
15 | 525 | – | O=C(O)c1ccc(-c2nn(C(=O)C3CCCCC3)c3ccccc23)cc1 [Example 11D, 4-(1-(cyclohexanecarbonyl)-1H-indazol-3-yl)benzoic acid]
16 | 26.9 | – | O=C(O)c1ccc(-c2nn(C(=O)c3c(Cl)cccc3Br)c3ccccc23)cc1 [Example 11E, 4-(1-(2-bromo-6-chlorobenzoyl)-1H-indazol-3-yl)benzoic acid]
17 | 39.8 | – | O=C(O)c1ccc(-c2nn(C(=O)c3c(F)cccc3C(F)(F)F)c3ccccc23)cc1 [Example 11F, 4-(1-(2-fluoro-6-(trifluoromethyl)benzoyl)-1H-indazol-3-yl)benzoic acid]
18 | 60.3 | – | COc1cccc(F)c1C(=O)n1nc(-c2ccc(C(=O)O)cc2)c2ccccc21 [Example 11G, 4-(1-(2-fluoro-6-methoxybenzoyl)-1H-indazol-3-yl)benzoic acid]
19 | 70.8 | – | O=C(O)c1ccc(-c2nn(C(=O)c3c(Cl)cc(Cl)cc3Cl)c3ccccc23)cc1 [Example 11H, 4-(1-(2,4,6-trichlorobenzoyl)-1H-indazol-3-yl)benzoic acid]
20 | 72.4 | – | Cc1cccc(C)c1C(=O)n1nc(-c2ccc(C(=O)O)cc2)c2ccccc21 [Example 11I, 4-(1-(2,6-dimethylbenzoyl)-1H-indazol-3-yl)benzoic acid]
21 | 1910 | – | CCOc1ccccc1C(=O)n1nc(-c2ccc(C(=O)O)cc2)c2ccccc21 [Example 11J, 4-(1-(2-ethoxybenzoyl)-1H-indazol-3-yl)benzoic acid]
22 | 21.4 | – | O=C(O)c1ccc(-c2nn(C(=O)c3cccc(Cl)c3Cl)c3ccccc23)cc1 [Example 11K, 4-(1-(2,3-dichlorobenzoyl)-1H-indazol-3-yl)benzoic acid]
23 | 26.3 | – | O=C(O)c1ccc(-c2nn(C(=O)c3ccccc3Cl)c3ccccc23)cc1 [Example 11L, 4-(1-(2-chlorobenzoyl)-1H-indazol-3-yl)benzoic acid]
24 | 25.7 | – | Cc1cccc([N+](=O)[O-])c1C(=O)n1nc(-c2ccc(C(=O)O)cc2)c2ccccc21 [Example 11N, 4-(1-(2-methyl-6-nitrobenzoyl)-1H-indazol-3-yl)benzoic acid]
25 | 155 | – | O=C(O)c1ccc(-c2nn(S(=O)(=O)c3cccc4cccnc34)c3ccccc23)cc1 [Example 13A, 4-(1-(quinolin-8-ylsulfonyl)-1H-indazol-3-yl)benzoic acid]
26 | 79.4 | – | O=C(O)c1ccc(-c2nn(S(=O)(=O)c3ccccc3Br)c3ccccc23)cc1 [Example 13B, 4-(1-(2-bromophenylsulfonyl)-1H-indazol-3-yl)benzoic acid]

molecular target: T2, HIS-tagged RORγ-LBD (Homo sapiens, UniProt P51449); experiment: TR-FRET assay (Protocol B), RORγ-LBD lysate / biotinylated SRC1-2 LXXLL peptide; format: biochemical; details: unpurified RORγ-LBD lysate ~10 nM, SRC1-2 peptide 450 nM
T2 construct: HIS-tagged RORγ-LBD was recombinantly expressed in SF9 cells using a baculovirus expression system; made in house; host or cells: SF9 cells, baculovirus; crude lysate used
T2 sequence (P51449 269-508 limits assumed): T1 sequence (P51449 269-508 limits assumed)
Excerpt: as §1, §2
TR-Fret Assay (Protocol B)
HIS-tagged RORγ-LBD was recombinantly expressed in SF9 cells using a baculovirus expression system. The protein was not purified. Cells were lysed and the lysate was used as a source for RORγ-LBD for the assay. A 1:80 dilution of RORγ-LBD lysate in assay buffer (25 mM HEPES pH 7.0, 100 mM NaCl, 0.01% Tween, 0.1% BSA) was prepared and 5 μL was added to each well (RORγ-LBD final concentration ˜10 nM). Control wells received lysate from SF9 cells not expressing RORγ-LBD.
Compounds to be tested were diluted to 100× final test concentration in DMSO and further diluted to 4× final test concentration using assay buffer to provide the test compound mixture. An aliquot (5 μL) of the test compound mixture was added to each well.

Row | Compound | IC50 [nM]
27 | CC(=O)Oc1cc(-c2nn(C(=O)c3c(Cl)cccc3C(F)(F)F)c3cccnc23)ccc1C(=O)O [Example 26I, 2-acetoxy-4-(1-(2-chloro-6-(trifluoromethyl)benzoyl)-1H-pyrazolo[4,3-b]pyridin-3-yl)benzoic acid] | < 50
28 | O=C(O)c1ccc(-c2nn(C(=O)c3c(Cl)cccc3C(F)(F)F)c3ccccc23)cc1C(F)F [Example 28, 4-(1-(2-chloro-6-(trifluoromethyl)benzoyl)-1H-indazol-3-yl)-2-(difluoromethyl)benzoic acid] | < 50
29 | N#Cc1ccc2c(-c3ccc(C(=O)O)cc3)nn(C(=O)c3c(Cl)cccc3C(F)(F)F)c2c1 [Example 29, 4-(1-(2-chloro-6-(trifluoromethyl)benzoyl)-6-cyano-1H-indazol-3-yl)benzoic acid] | 50 to 500

The remaining lines, values ahead:

Row | IC50 [nM] | Compound
30 | < 50 | O=C(O)c1ccc(-c2nn(C(=O)c3c(Cl)cccc3C(F)(F)F)c3cccc(F)c23)c(O)c1 [Example 26E, 4-(1-(2-chloro-6-(trifluoromethyl)benzoyl)-4-fluoro-1H-indazol-3-yl)-3-hydroxybenzoic acid]
31 | < 50 | O=C(O)c1ccc(-c2nn(C(=O)c3c(Cl)cccc3C(F)(F)F)c3cccnc23)cc1O [Example 26H, 4-(1-(2-chloro-6-(trifluoromethyl)benzoyl)-1H-pyrazolo[4,3-b]pyridin-3-yl)-2-hydroxybenzoic acid]
32 | < 50 | CN(C)C(=O)c1ccc2c(-c3ccc(C(=O)O)c(O)c3)nn(C(=O)c3c(Cl)cccc3C(F)(F)F)c2c1 [Example 26J, 4-(1-(2-chloro-6-(trifluoromethyl)benzoyl)-6-(dimethyl-carbamoyl)-1H-indazol-3-yl)-2-hydroxybenzoic acid]
33 | < 50 | NCc1ccc2c(-c3ccc(C(=O)O)cc3)nn(C(=O)c3c(Cl)cccc3C(F)(F)F)c2c1 [Example 27A, 4-(6-(aminomethyl)-1-(2-chloro-6-(trifluoromethyl)benzoyl)-1H-indazol-3-yl)benzoic acid]
34 | < 50 | NCc1ccc2c(-c3ccc(C(=O)O)cc3F)nn(C(=O)c3c(Cl)cccc3C(F)(F)F)c2c1 [Example 27B, 4-(6-(aminomethyl)-1-(2-chloro-6-(trifluoromethyl)benzoyl)-1H-indazol-3-yl)-3-fluorobenzoic acid]
